The source of these data is ChEMBL document CHEMBL1131896, “Probing the radical mechanism of galactose oxidase using an ultrafast radical probe” (Bioorg Med Chem Lett, 1999).

Experiment [1] addresses Galactose oxidase (Fusarium austroamericanum). Put plainly: Binding constant against Galactose oxidase (GOase).
The test system of experiment [2] is Galactose oxidase (Fusarium austroamericanum). The experiment is described as follows: Inactivation rate constant against Galactose oxidase (GOase).

A word on the Ki: it is a dissociation constant, usually derived from enzyme kinetics or from competition with a known ligand. High values mean lower affinity, low ones higher affinity. For `OC[C@H]1C[C@@H]1c1ccccc1` [listing 1 of 2 here], the Ki in experiment [1] stood at 5.6 mM.

Take `OC[C@H]1C[C@@H]1c1ccccc1` [listing 2 of 2 here]: the K inact in experiment [2] stood at 0.0026 s⁻¹.

In turn, `[2H]C([2H])(O)[C@H]1C[C@@H]1c1ccccc1` (relative stereo) displayed a Ki in experiment [1] of 5.1 mM.

In experiment [2] (tested as the 2H-labelled form), `OC[C@H]1C[C@@H]1c1ccccc1` (relative stereo) gave a K inact of 0.00082 s⁻¹.
